Results published in US20240374631A1, “A COMPOSITION FOR IMPROVING GUT MICROBIOTA, BEHAVIOURAL PATTERN, ALPHA-SYNUCLEIN LEVELS, SLEEP PATTERN AND/OR SERUM MELATONIN” (GN Corporation Co Ltd, priority 2021, published 2024).

Test system: α-synuclein on the neuroblastoma cell line (SHSY-5Y Tet-On: SCC291)
Experiment: Expression of α-synuclein on neuroblastoma cell line stimulated with beta-glucan or PMA (glutaraldehyde-fixed cellular ELISA, 3 days)
Assay type: cell-based
Settings: BG-AF202 50 μg/mL, PMA 500 ng/mL
Procedure: Neuroblastoma cell line (SHSY-5Y Tet-On: SCC291) (MERCK) was suspended in 10% FCS-DMEM/F12 medium and seeded into 96-well microplates to achieve a cell count of 5×10^4 cells/well. After 24 hours of incubation, the cells were washed with 10% FCS-DMEM/F12 medium and new 10% FCS-DMEM/F12 medium was added.
Then, β-glucan AFO-202 (50 μg/mL) and PMA (500 ng/mL) (Sigma) were added to the medium, and the cells were cultured for 1 to 3 days. After incubation, the wells were washed three times with PBS and fixed in 0.25% glutaraldehyde-PBS for 1 hour at room temperature. After fixation, the wells were washed three times with PBS-0.05% Tween (PBS-T). After washing the wells with PBS-T, 50 μL of 500-fold diluted α-synuclein polyclonal rabbit antibody (proteintech Co. 10842-1-AP) was added to the wells and incubated at room temperature for 1 h. Then, 2% BSA-PBS-T was added and left for 1 h (to block non-specific reactions).
After 1 hour, the wells were washed with PBS-T and 50 μL of biotin-labeled anti-rabbit IgG antibody (Cosmo Bio) diluted 5,000-fold was added to the wells and the reaction was carried out for 40 minutes at room temperature. […]
After that, the absorbance (OD value) was measured with a microplate reader (450 nm) (Tosoh). Data were expressed as […] value (sample OD value−blank OD value). The expression rate was calculated based on the control (None). […]

In the case of `CCCCCCCCCCCCCC(=O)O[C@@H]1[C@@H](C)[C@@]2(O)[C@@H](C=C(CO)C[C@]3(O)C(=O)C(C)=C[C@@H]23)[C@@H]2C(C)(C)[C@]12OC(C)=O` [PMA], the “α-synuclein expression (%) vs. None” value was 50.1% and the δOD value (None 0.281) was 0.166.
